Assays:
Type in all cases: cell-based
[1] = tested on: Citrobacter freundii species complex; test: MIC broth microdilution, Citrobacter freundii species complex isolate; conditions: isolate 1056585, Elevated AmpC, LTV-17 alone
Experimental: (§1) Bacterial isolates: Representative resistant strains of Escherichia coli, Citrobacter freundii, Enterobacter cloacae, Klebsiella pneumoniae, and Proteus mirabilis harboring class-C β-lactamase producers were used to test for the synergistic effect of adding a β-lactamase inhibitor (II^j) to the antibiotic LTV-17 (I) (Table 1).
(§2) Minimum inhibitory concentration (MIC) test procedure: All antibiotics were tested by both the broth microdilution methods according to the Clinical and Laboratory Standards Institute (CLSI) recommendations (M07), and a modified CLSI method that included iron-depleted CA-MHB protocol. The MIC was defined as the lowest concentration of the antibiotic to produce clear wells in the 96-well plates. MIC interpretations were based on the CLSI M100-S23 (2013) and European Committee on Antimicrobial Susceptibility Testing (EUCAST; 2013) breakpoint criteria. Synergistic activity was calculated based on the number of two-fold dilution reduction of the MIC using LTV-17 (I) plus β-lactamase inhibitor Avibactam (II^j) compared to MIC of LTV-17 (I) tested alone against the same strains. The higher the number of two-fold reduction, the stronger the synergy is.
(§3) Avibactam was tested at a fixed concentration of 4 μg/mL.

Escherichia coli = test: MIC broth microdilution, Escherichia coli isolates; conditions: LTV-17 alone
Experimental: as §1, §2, §3

[2] = tested on: Enterobacter cloacae species complex; test: MIC broth microdilution, Enterobacter cloacae species complex isolates; conditions: LTV-17 alone
Experimental: as §1, §2, §3

Klebsiella pneumoniae = test: MIC broth microdilution, Klebsiella pneumoniae isolate; conditions: isolate 1167846, CMY-DHA, LTV-17 alone
Experimental: as §1, §2, §3

Proteus mirabilis = test: MIC broth microdilution, Proteus mirabilis isolate; conditions: isolate 1159308, CMY-DHA, LTV-17 alone
Experimental: as §1, §2, §3

MIC [1]: 0.5 µg/mL
MIC (Escherichia coli; isolate 827002, Elevated AmpC): 0.03 µg/mL
MIC (Escherichia coli; isolate 841741, Elevated AmpC): 0.25 µg/mL
MIC (Escherichia coli; isolate 850348, Elevated AmpC): 1 µg/mL
MIC (Escherichia coli; isolate 850361, Elevated AmpC): 0.06 µg/mL
MIC (Escherichia coli; isolate 1043714, Elevated AmpC): 0.06 µg/mL
MIC (Escherichia coli; isolate 1047951, Elevated AmpC): 0.12 µg/mL
MIC (Escherichia coli; isolate 1152443, CMY-DHA): 0.5 µg/mL
MIC (Escherichia coli; isolate 1160345, CMY-DHA): 0.5 µg/mL
MIC (Escherichia coli; isolate 1160670, CMY-DHA): 0.12 µg/mL
MIC (Escherichia coli; isolate 1165173, CMY-DHA): 0.25 µg/mL
MIC (Escherichia coli; isolate 1165490, CMY-DHA): 0.5 µg/mL
MIC (Escherichia coli; isolate 1165546, CMY-DHA): 0.5 µg/mL
MIC (Escherichia coli; isolate 1167103, CMY-DHA): 0.5 µg/mL
MIC (Escherichia coli; isolate 1167174, CMY-DHA): 4 µg/mL
MIC ([2]; isolate 552115, Elevated AmpC): 2 µg/mL
MIC ([2]; isolate 1057610, Elevated AmpC): 0.25 µg/mL
MIC ([2]; isolate 1083996, Elevated AmpC): 0.5 µg/mL
MIC (Klebsiella pneumoniae): 1 µg/mL
MIC (Proteus mirabilis): 4 µg/mL
Structure (SMILES): CC(C)(O/N=C(\C(=O)N[C@H]1CON(C2(C(=O)O)C[C@H](N3C(=O)c4cc(O)c(O)cc4C3=O)C(=O)O2)C1=O)c1csc(N)n1)C(=O)O (stereo partly drawn) [LTV-17, (4S)-2-[(4S)-4-{[(2Z)-2-(2-amino-1,3-thiazol-4-yl)-2-{[(2-carboxypropan-2-yl)oxy]imino}acetyl]amino}-3-oxo-1,2-oxazolidin-2-yl]-4-(5,6-dihydroxy-1,3-dioxo-1,3-dihydro-2H-isoindol-2-yl)-5-oxooxolane-2-carboxylic acid]

From patent US11998533B2, “Pharmaceutical compositions comprising LTV-17 and beta-lactamase inhibitors and their use as antibacterial agents” (FEDORA PHARMACEUTICALS INC., priority 2021, dated 2024)
